# From patent publication US10206399B2, “Herbicidal composition comprising uracil compound as active ingredient” (Dongbu Farm Hannong Co., Ltd., priority 2012, dated 2019)
# Where two headings read alike, the source gives them in different places.
# Legend:
# Aeschynomene indica = experiment: whole plant or invertebrate
# Text: (§1) X is % damage by uracil compound (a) of formula 1 at the rate of application of p kg/ha; Y is % damage by conventional herbicidal compound (b) at the rate of application of q kg/ha; and E is the expected damage caused by compounds (a) and (b) at a rate of application of p and q kg/ha.
# (§2) The expected activity for a given combination of two herbicides can be calculated using equation 1 above.
# Xanthium spinosum = experiment: whole plant or invertebrate
# Text: as §1, §2
# Echinochloa crus = settings: for plant mortality, measured value: Echinochloa crus; for Echinochloa crus mortality, measured value: 20 days after treatment
# Text: as §1, §2
# Digitaria sanguinalis = settings: for plant mortality, measured value: Digitaria sanguinalis; for Digitaria sanguinalis mortality, measured value: 20 days after treatment
# Text: as §1, §2
# Abutilon theophrasti = experiment: whole plant or invertebrate
# Text: as §1, §2
# [1] = read-out: plant mortality, measured value, 125 g/ha
# [2] = read-out: plant mortality, measured value, 250 g/ha
# [3] = read-out: plant mortality, measured value, 500 g/ha
# [4] = read-out: plant mortality, measured value, 175 g/ha
# [5] = read-out: plant mortality, measured value, 350 g/ha
# [6] = read-out: plant mortality, measured value, 700 g/ha
# [7] = read-out: Data (measured value) Aeschynomene indica, 50 g/ha
# [8] = read-out: Data (measured value) Aeschynomene indica, 100 g/ha
# [9] = read-out: plant mortality, measured value, 25 g/ha
# [10] = read-out: plant mortality, measured value, 50 g/ha
# [11] = read-out: plant mortality, measured value, 100 g/ha
# [12] = read-out: Data (measured value) Xanthium spinosum, 50 g/ha
# [13] = read-out: Data (measured value) Xanthium spinosum, 100 g/ha
# [14] = read-out: Data (measured value) Abutilon theophrasti, 50 g/ha
# [15] = read-out: Data (measured value) Abutilon theophrasti, 100 g/ha
# [16] = 480 h, read-out: Aeschynomene indica mortality, measured value
# [17] = 480 h, read-out: Xanthium spinosum mortality, measured value
# [18] = 480 h, read-out: Abutilon theophrasti mortality, measured value
smiles,measurement,setting,value
CC(C)N1C(=O)c2ccccc2NS1(=O)=O [Bentazone],pest or weed control at 125 g/ha,Aeschynomene indica; [1],10%
same,pest or weed control at 250 g/ha,Aeschynomene indica; [2],22%
same,pest or weed control at 500 g/ha,Aeschynomene indica; [3],52%
same,pest or weed control at 125 g/ha,Xanthium spinosum; [1],8%
same,pest or weed control at 250 g/ha,Xanthium spinosum; [2],18%
same,pest or weed control at 500 g/ha,Xanthium spinosum; [3],45%
same,"plant mortality, measured value",Echinochloa crus; 125 g/ha,0
same,"plant mortality, measured value",Echinochloa crus; 250 g/ha,0
same,"plant mortality, measured value",Echinochloa crus; 500 g/ha,0
same,"plant mortality, measured value",Digitaria sanguinalis; 125 g/ha,0
same,"plant mortality, measured value",Digitaria sanguinalis; 250 g/ha,0
same,"plant mortality, measured value",Digitaria sanguinalis; 500 g/ha,0
same,pest or weed control at 125 g/ha,Abutilon theophrasti; [1],9%
same,pest or weed control at 250 g/ha,Abutilon theophrasti; [2],22%
same,pest or weed control at 500 g/ha,Abutilon theophrasti; [3],49%
COc1cc(OC)nc(Oc2cccc(Oc3nc(OC)cc(OC)n3)c2C(=O)O)n1 [Bispyribac-sodium],pest or weed control at 15 g/ha,"Aeschynomene indica; read-out: Data (measured value) Aeschynomene indica, 15 g/ha",23%
same,pest or weed control at 30 g/ha,"Aeschynomene indica; read-out: Data (measured value) Aeschynomene indica, 30 g/ha",49%
same,pest or weed control at 15 g/ha,"Xanthium spinosum; read-out: Data (measured value) Xanthium spinosum, 15 g/ha",27%
same,pest or weed control at 30 g/ha,"Xanthium spinosum; read-out: Data (measured value) Xanthium spinosum, 30 g/ha",58%
same,Data (measured value) Echinochloa crus,Echinochloa crus; 15 g/ha,23
same,Data (measured value) Echinochloa crus,Echinochloa crus; 30 g/ha,45
same,Data (measured value) Digitaria sanguinalis,Digitaria sanguinalis; 15 g/ha,20
same,Data (measured value) Digitaria sanguinalis,Digitaria sanguinalis; 30 g/ha,47
same,pest or weed control at 15 g/ha,"Abutilon theophrasti; read-out: Data (measured value) Abutilon theophrasti, 15 g/ha",31%
same,pest or weed control at 30 g/ha,"Abutilon theophrasti; read-out: Data (measured value) Abutilon theophrasti, 30 g/ha",62%
Nc1cnn(-c2ccccc2)c(=O)c1Cl [Chloridazon],pest or weed control at 175 g/ha,Aeschynomene indica; [4],11%
same,pest or weed control at 350 g/ha,Aeschynomene indica; [5],29%
same,pest or weed control at 700 g/ha,Aeschynomene indica; [6],57%
same,pest or weed control at 175 g/ha,Xanthium spinosum; [4],7%
same,pest or weed control at 350 g/ha,Xanthium spinosum; [5],22%
same,pest or weed control at 700 g/ha,Xanthium spinosum; [6],46%
same,"plant mortality, measured value",Echinochloa crus; 175 g/ha,13
same,"plant mortality, measured value",Echinochloa crus; 350 g/ha,27
same,"plant mortality, measured value",Echinochloa crus; 700 g/ha,54
same,"plant mortality, measured value",Digitaria sanguinalis; 175 g/ha,14
same,"plant mortality, measured value",Digitaria sanguinalis; 350 g/ha,28
same,"plant mortality, measured value",Digitaria sanguinalis; 700 g/ha,63
same,pest or weed control at 175 g/ha,Abutilon theophrasti; [4],14%
same,pest or weed control at 350 g/ha,Abutilon theophrasti; [5],30%
same,pest or weed control at 700 g/ha,Abutilon theophrasti; [6],64%
CCSC(C)CC1CC(=O)C(/C(CC)=N/OC/C=C/Cl)=C(O)C1 (stereo not shown) [Clethodim],pest or weed control at 25 g/ha,"Aeschynomene indica; read-out: Data (measured value) Aeschynomene indica, 25 g/ha",0%
same,pest or weed control at 50 g/ha,Aeschynomene indica; [7],0%
same,pest or weed control at 100 g/ha,Aeschynomene indica; [8],0%
same,pest or weed control at 25 g/ha,Aeschynomene indica; [9],0%
same,pest or weed control at 50 g/ha,Aeschynomene indica; [10],0%
same,pest or weed control at 100 g/ha,Aeschynomene indica; [11],0%
same,pest or weed control at 25 g/ha,"Xanthium spinosum; read-out: Data (measured value) Xanthium spinosum, 25 g/ha",0%
same,pest or weed control at 50 g/ha,Xanthium spinosum; [12],0%
same,pest or weed control at 100 g/ha,Xanthium spinosum; [13],0%
same,pest or weed control at 25 g/ha,Xanthium spinosum; [9],0%
same,pest or weed control at 50 g/ha,Xanthium spinosum; [10],0%
same,pest or weed control at 100 g/ha,Xanthium spinosum; [11],0%
same,Data (measured value) Echinochloa crus,Echinochloa crus; 25 g/ha,11
same,"plant mortality, measured value",Echinochloa crus; 25 g/ha,11
same,Data (measured value) Echinochloa crus,Echinochloa crus; 50 g/ha,31
same,"plant mortality, measured value",Echinochloa crus; 50 g/ha,31
same,Data (measured value) Echinochloa crus,Echinochloa crus; 100 g/ha,65
same,"plant mortality, measured value",Echinochloa crus; 100 g/ha,65
same,Data (measured value) Digitaria sanguinalis,Digitaria sanguinalis; 25 g/ha,6
same,"plant mortality, measured value",Digitaria sanguinalis; 25 g/ha,6
same,Data (measured value) Digitaria sanguinalis,Digitaria sanguinalis; 50 g/ha,19
same,"plant mortality, measured value",Digitaria sanguinalis; 50 g/ha,19
same,Data (measured value) Digitaria sanguinalis,Digitaria sanguinalis; 100 g/ha,45
same,"plant mortality, measured value",Digitaria sanguinalis; 100 g/ha,45
same,pest or weed control at 25 g/ha,"Abutilon theophrasti; read-out: Data (measured value) Abutilon theophrasti, 25 g/ha",0%
same,pest or weed control at 50 g/ha,Abutilon theophrasti; [14],0%
same,pest or weed control at 100 g/ha,Abutilon theophrasti; [15],0%
same,pest or weed control at 25 g/ha,Abutilon theophrasti; [9],0%
same,pest or weed control at 50 g/ha,Abutilon theophrasti; [10],0%
same,pest or weed control at 100 g/ha,Abutilon theophrasti; [11],0%
"COC(=O)CCNC(=O)C(C)Oc1cc(-n2c(=O)cc(C(F)(F)F)n(C)c2=O)c(F)cc1Cl (stereo not shown) [Compound 1, 3-[{2-[2-chloro-5-(3,6-dihydro-3-methyl-2,6-dioxo-4-trifluoromethyl-1(2H)-pyrimidinyl)-4-fluorophenoxy]-1-oxopropyl}amino]propionic acid methyl ester]",mortality at 4 g/ha,Aeschynomene indica; [16],18%
same,mortality at 8 g/ha,Aeschynomene indica; [16],45%
same,mortality at 16 g/ha,Aeschynomene indica; [16],60%
same,mortality at 4 g/ha,Xanthium spinosum; [17],11%
same,mortality at 8 g/ha,Xanthium spinosum; [17],39%
same,mortality at 16 g/ha,Xanthium spinosum; [17],52%
same,"Echinochloa crus mortality, measured value",Echinochloa crus; 4 g/ha,0%
same,"Echinochloa crus mortality, measured value",Echinochloa crus; 8 g/ha,5%
same,"Echinochloa crus mortality, measured value",Echinochloa crus; 16 g/ha,17%
same,"Digitaria sanguinalis mortality, measured value",Digitaria sanguinalis; 4 g/ha,0%
same,"Digitaria sanguinalis mortality, measured value",Digitaria sanguinalis; 8 g/ha,5%
same,"Digitaria sanguinalis mortality, measured value",Digitaria sanguinalis; 16 g/ha,20%
same,mortality at 4 g/ha,Abutilon theophrasti; [18],17%
same,mortality at 8 g/ha,Abutilon theophrasti; [18],45%
same,mortality at 16 g/ha,Abutilon theophrasti; [18],60%
COc1c(Cl)ccc(Cl)c1C(=O)O [Dicamba],pest or weed control at 75 g/ha,"Aeschynomene indica; read-out: Data (measured value) Aeschynomene indica, 75 g/ha",7%
same,pest or weed control at 150 g/ha,"Aeschynomene indica; read-out: Data (measured value) Aeschynomene indica, 150 g/ha",23%
same,pest or weed control at 300 g/ha,"Aeschynomene indica; read-out: Data (measured value) Aeschynomene indica, 300 g/ha",51%
same,pest or weed control at 75 g/ha,"Xanthium spinosum; read-out: Data (measured value) Xanthium spinosum, 75 g/ha",13%
same,pest or weed control at 150 g/ha,"Xanthium spinosum; read-out: Data (measured value) Xanthium spinosum, 150 g/ha",29%
same,pest or weed control at 300 g/ha,"Xanthium spinosum; read-out: Data (measured value) Xanthium spinosum, 300 g/ha",62%
same,Data (measured value) Echinochloa crus,Echinochloa crus; 75 g/ha,0
same,Data (measured value) Echinochloa crus,Echinochloa crus; 150 g/ha,0
same,Data (measured value) Echinochloa crus,Echinochloa crus; 300 g/ha,0
same,Data (measured value) Digitaria sanguinalis,Digitaria sanguinalis; 75 g/ha,0
same,Data (measured value) Digitaria sanguinalis,Digitaria sanguinalis; 150 g/ha,0
same,Data (measured value) Digitaria sanguinalis,Digitaria sanguinalis; 300 g/ha,0
same,pest or weed control at 75 g/ha,"Abutilon theophrasti; read-out: Data (measured value) Abutilon theophrasti, 75 g/ha",9%
same,pest or weed control at 150 g/ha,"Abutilon theophrasti; read-out: Data (measured value) Abutilon theophrasti, 150 g/ha",20%
same,pest or weed control at 300 g/ha,"Abutilon theophrasti; read-out: Data (measured value) Abutilon theophrasti, 300 g/ha",46%
"CC(Oc1ccc(Oc2nc3ccc(Cl)cc3o2)cc1)C(=O)O (stereo not shown) [Fenoxaprop, reference compound]",mortality at 25 g/ha,Aeschynomene indica; [16],0%
same,mortality at 50 g/ha,Aeschynomene indica; [16],0%
same,mortality at 100 g/ha,Aeschynomene indica; [16],0%
same,mortality at 25 g/ha,Xanthium spinosum; [17],0%
same,mortality at 50 g/ha,Xanthium spinosum; [17],0%
same,mortality at 100 g/ha,Xanthium spinosum; [17],0%
same,"Echinochloa crus mortality, measured value",Echinochloa crus; 25 g/ha,13%
same,"Echinochloa crus mortality, measured value",Echinochloa crus; 50 g/ha,31%
same,"Echinochloa crus mortality, measured value",Echinochloa crus; 100 g/ha,65%
same,"Digitaria sanguinalis mortality, measured value",Digitaria sanguinalis; 25 g/ha,13%
same,"Digitaria sanguinalis mortality, measured value",Digitaria sanguinalis; 50 g/ha,32%
same,"Digitaria sanguinalis mortality, measured value",Digitaria sanguinalis; 100 g/ha,64%
same,mortality at 25 g/ha,Abutilon theophrasti; [18],0%
same,mortality at 50 g/ha,Abutilon theophrasti; [18],0%
same,mortality at 100 g/ha,Abutilon theophrasti; [18],0%
"CC(Oc1ccc(Oc2ccc(C(F)(F)F)cn2)cc1)C(=O)O (stereo not shown) [Fluazifop, reference compound]",mortality at 50 g/ha,Aeschynomene indica; [16],0%
same,mortality at 100 g/ha,Aeschynomene indica; [16],0%
same,mortality at 200 g/ha,Aeschynomene indica; [16],0%
same,mortality at 50 g/ha,Xanthium spinosum; [17],0%
same,mortality at 100 g/ha,Xanthium spinosum; [17],0%
same,mortality at 200 g/ha,Xanthium spinosum; [17],0%
same,"Echinochloa crus mortality, measured value",Echinochloa crus; 50 g/ha,10%
same,"Echinochloa crus mortality, measured value",Echinochloa crus; 100 g/ha,26%
same,"Echinochloa crus mortality, measured value",Echinochloa crus; 200 g/ha,61%
same,"Digitaria sanguinalis mortality, measured value",Digitaria sanguinalis; 50 g/ha,9%
same,"Digitaria sanguinalis mortality, measured value",Digitaria sanguinalis; 100 g/ha,21%
same,"Digitaria sanguinalis mortality, measured value",Digitaria sanguinalis; 200 g/ha,52%
same,mortality at 50 g/ha,Abutilon theophrasti; [18],0%
same,mortality at 100 g/ha,Abutilon theophrasti; [18],0%
same,mortality at 200 g/ha,Abutilon theophrasti; [18],0%
Nc1c(Cl)c(F)nc(OCC(=O)O)c1Cl [Fluroxypyr],pest or weed control at 50 g/ha,Aeschynomene indica; [7],13%
same,pest or weed control at 100 g/ha,Aeschynomene indica; [8],27%
same,pest or weed control at 200 g/ha,"Aeschynomene indica; read-out: Data (measured value) Aeschynomene indica, 200 g/ha",63%
same,pest or weed control at 50 g/ha,Xanthium spinosum; [12],7%
same,pest or weed control at 100 g/ha,Xanthium spinosum; [13],23%
same,pest or weed control at 200 g/ha,"Xanthium spinosum; read-out: Data (measured value) Xanthium spinosum, 200 g/ha",54%
same,Data (measured value) Echinochloa crus,Echinochloa crus; 50 g/ha,0
same,Data (measured value) Echinochloa crus,Echinochloa crus; 100 g/ha,0
same,Data (measured value) Echinochloa crus,Echinochloa crus; 200 g/ha,0
same,Data (measured value) Digitaria sanguinalis,Digitaria sanguinalis; 50 g/ha,0
same,Data (measured value) Digitaria sanguinalis,Digitaria sanguinalis; 100 g/ha,0
same,Data (measured value) Digitaria sanguinalis,Digitaria sanguinalis; 200 g/ha,0
same,pest or weed control at 50 g/ha,Abutilon theophrasti; [14],9%
same,pest or weed control at 100 g/ha,Abutilon theophrasti; [15],26%
same,pest or weed control at 200 g/ha,"Abutilon theophrasti; read-out: Data (measured value) Abutilon theophrasti, 200 g/ha",53%
